{"source": "patent US12280125B2", "about": "(Imam Abdulrahman Bin Faisal University, priority 2022, dated 2025)", "key": {"diabetic animals [1]": {"tested_on": "diabetic animals", "test": "Long-term effect on fasting blood glucose over 28 days", "format": "in vivo, rats", "settings": "standard insulin treated group"}, "diabetic animals [2]": {"tested_on": "diabetic animals", "test": "Non fasting blood glucose levels during 28 days", "format": "in vivo, rats", "settings": "standard insulin group", "protocol": "Non fasting blood glucose levels were measured for all the groups during the 28 days."}, "[3]": {"test": "Body weight during 28 days", "set-up": "species or system rats", "settings": "rat, in vivo"}, "pancreatic tissue": {"tested_on": "pancreatic tissue", "test": "Histopathological evaluation of pancreas (H&E)", "format": "in vivo", "settings": "diabetic rats, after treatment", "description": "After treatment, the organs (liver and pancreas) of the rats were collected for histopathological evaluation. […] To collect the tissue at the end of the treatment time, animals were sacrificed under anesthetic conditions. These tissues were washed with phosphate-buffered saline (PBS) and fixed in 10% formalin (Tissue processing station-Tissue Teck VIP 5). The collected samples were properly stored under normal room temperature and were cut/sliced using a semiautomated microtome (Accu-Cut SRM system) into a few small pieces of 3-5 mm from each sample tissue and were separately embedded in paraffin blocks. These sliced tissues were mounted on the glass slides and were properly fixed on the glass slide with a hot plate. After this xylene was used to remove the paraffin from the tissues and was rehydrated by using a series of graded ethanol dilutions, 100%, 90%, and 70%. The rehydrated tissue sections were stained with hematoxylin and eosin (H&E) and were examined using light microscopy to determine the architecture and proportions of islet and acinar cells in the pancreas and hepatocytes in the liver. […] In the control group, acinar and islet cells are seen in the pancreas in normal proportions. The acinar cells are arranged in lobules and are stained darkly with prominent nuclei. The islet cells are embedded within the acinar cells and surrounded by a fine capsule (FIG. 19A). […]"}, "liver tissue": {"tested_on": "liver tissue", "test": "Histopathological evaluation of liver (H&E)", "format": "in vivo", "settings": "diabetic rats, after treatment", "description": "After treatment, the organs (liver and pancreas) of the rats were collected for histopathological evaluation. […] To collect the tissue at the end of the treatment time, animals were sacrificed under anesthetic conditions. These tissues were washed with phosphate-buffered saline (PBS) and fixed in 10% formalin (Tissue processing station-Tissue Teck VIP 5). The collected samples were properly stored under normal room temperature and were cut/sliced using a semiautomated microtome (Accu-Cut SRM system) into a few small pieces of 3-5 mm from each sample tissue and were separately embedded in paraffin blocks. These sliced tissues were mounted on the glass slides and were properly fixed on the glass slide with a hot plate. After this xylene was used to remove the paraffin from the tissues and was rehydrated by using a series of graded ethanol dilutions, 100%, 90%, and 70%. The rehydrated tissue sections were stained with hematoxylin and eosin (H&E) and were examined using light microscopy to determine the architecture and proportions of islet and acinar cells in the pancreas and hepatocytes in the liver. […] These cords of hepatocytes are separated by narrow intervening sinusoids lined by endothelial cells and Kupffer cells. No inflammatory cells are seen (FIG. 20A)."}}}
{"substance": "standard insulin: standard insulin dose used as the comparison treatment group in diabetic rats", "values": [{"measurement": "Fasting blood glucose level, initial", "setting": "diabetic animals [1]", "result": 433, "unit": "mg/dL"}, {"measurement": "Fasting blood glucose level, reduced", "setting": "diabetic animals [1]; p=<0.001", "result": 371, "unit": "mg/dL"}, {"measurement": "Non fasting blood glucose level at day 1", "setting": "diabetic animals [2]", "result": 487, "unit": "mg/dL"}, {"measurement": "Non fasting blood glucose level at day 28", "setting": "diabetic animals [2]", "result": 371, "unit": "mg/dL"}, {"measurement": "Body weight at day 28 compared to the weight at day 21", "setting": "[3]", "result": "significant (p=<0.001) improvement"}, {"measurement": "Improvement in body weight compared to diabetic control group", "setting": "[3]", "result": "significant (p=<0.0001)"}, {"measurement": "Pancreatic histology", "setting": "pancreatic tissue", "result": "the pancreatic histology is similar to that of the diabetic control"}, {"measurement": "Liver histology", "setting": "liver tissue", "result": "the liver histology shows mostly a normal lobular architecture with normal cords of hepatocytes with intervening patent sinusoids with focal congestion with only occasional hepatocytes showing degenerative changes and no inflammation is seen"}]}
